# According to patent US20260028365A1 (BIOGEN MA INC., priority 2022, published 2026):
# Structures can show the parent of a compound that is named as a salt. Where two headings read alike, the source gives them in different places.
# Key:
# JAK1 = JAK1 (Homo sapiens (Human), UniProt P23458); test: pSTAT3 Cell Assay (MSD, TF1 cells); assay type: cell-based
# Description: The inhibitory potency of compounds of the disclosure against the JAK1 kinase activity on STAT3 was evaluated using an MSD-platform plate-based assay format. TF1 cells natively expressing STAT3 and JAK1 were serum-starved to reduce background phosphorylation levels, then cells were treated with compounds of the disclosure for 1 hour with a 10-point four-fold dilution series starting at 10 μM. Cells were then stimulated with 30 ng/mL interleukin 6 (IL-6) for 15 minutes. Cells were lysed and pSTAT3 levels were quantitated using an MSD plate-based assay with anti-STAT3 antibodies. The data were normalized and the percent activity versus log concentration of compound was fitted with a 4-parameter logistic model to generate IC50 curves.
# JH2 domain of human Tyk2 = JH2 domain of human Tyk2 (Homo sapiens (Human), UniProt P29597); test: JH2 Biochemical Assay (TR-FRET probe displacement); assay type: binding
# Sequence of JH2 domain of human Tyk2 (P29597 575-876): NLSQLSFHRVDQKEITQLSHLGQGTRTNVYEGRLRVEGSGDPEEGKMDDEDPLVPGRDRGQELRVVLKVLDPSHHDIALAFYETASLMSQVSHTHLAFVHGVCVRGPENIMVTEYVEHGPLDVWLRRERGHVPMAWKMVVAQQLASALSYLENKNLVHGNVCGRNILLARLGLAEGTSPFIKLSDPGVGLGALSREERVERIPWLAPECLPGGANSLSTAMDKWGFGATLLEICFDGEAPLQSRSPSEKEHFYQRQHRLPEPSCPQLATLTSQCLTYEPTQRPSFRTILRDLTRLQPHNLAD
# Tyk2 = Tyk2 (Homo sapiens (Human), UniProt P29597); test: pSTAT4 Cell Assay (MSD, NK92 cells); assay type: cell-based
# Sequence of Tyk2 (P29597 whole entry, the tested form may be a part): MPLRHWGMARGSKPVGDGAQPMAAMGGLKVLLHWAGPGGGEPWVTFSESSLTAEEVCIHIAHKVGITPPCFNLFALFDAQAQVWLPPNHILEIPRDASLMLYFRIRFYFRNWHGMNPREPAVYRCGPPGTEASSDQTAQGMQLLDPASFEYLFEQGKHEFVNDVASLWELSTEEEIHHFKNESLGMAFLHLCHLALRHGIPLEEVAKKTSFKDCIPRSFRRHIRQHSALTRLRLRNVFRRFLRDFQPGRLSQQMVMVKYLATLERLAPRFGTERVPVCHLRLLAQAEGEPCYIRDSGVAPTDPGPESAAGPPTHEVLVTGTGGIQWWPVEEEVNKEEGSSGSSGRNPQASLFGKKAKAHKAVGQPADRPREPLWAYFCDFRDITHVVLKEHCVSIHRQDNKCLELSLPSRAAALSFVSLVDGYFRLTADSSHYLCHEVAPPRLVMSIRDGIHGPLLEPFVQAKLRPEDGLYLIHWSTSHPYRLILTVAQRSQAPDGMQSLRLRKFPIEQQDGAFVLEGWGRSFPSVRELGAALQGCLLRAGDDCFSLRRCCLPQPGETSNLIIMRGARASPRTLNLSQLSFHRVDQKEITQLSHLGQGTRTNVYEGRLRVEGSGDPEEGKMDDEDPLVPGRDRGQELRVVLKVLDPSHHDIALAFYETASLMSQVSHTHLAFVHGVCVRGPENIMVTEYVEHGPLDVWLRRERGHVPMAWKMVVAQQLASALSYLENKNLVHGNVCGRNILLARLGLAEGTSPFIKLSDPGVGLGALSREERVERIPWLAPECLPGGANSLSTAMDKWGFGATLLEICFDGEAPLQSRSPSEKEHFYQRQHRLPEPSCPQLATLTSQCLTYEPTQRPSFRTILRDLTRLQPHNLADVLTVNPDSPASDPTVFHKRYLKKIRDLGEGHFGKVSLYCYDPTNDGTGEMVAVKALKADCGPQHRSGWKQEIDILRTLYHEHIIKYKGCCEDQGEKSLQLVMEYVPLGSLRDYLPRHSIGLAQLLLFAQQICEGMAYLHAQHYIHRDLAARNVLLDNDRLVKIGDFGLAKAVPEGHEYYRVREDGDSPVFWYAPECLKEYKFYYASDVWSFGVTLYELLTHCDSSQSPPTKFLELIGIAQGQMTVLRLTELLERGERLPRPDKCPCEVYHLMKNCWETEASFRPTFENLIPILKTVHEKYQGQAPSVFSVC
# [1] = JH2 domain of human Tyk2, TR-FRET probe displacement
# [2] = TR-FRET probe displacement, JH2 domain of human Tyk2
# [3] = TR-FRET probe displacement, JH2 domain
# Sequence of JAK1 (P23458 whole entry): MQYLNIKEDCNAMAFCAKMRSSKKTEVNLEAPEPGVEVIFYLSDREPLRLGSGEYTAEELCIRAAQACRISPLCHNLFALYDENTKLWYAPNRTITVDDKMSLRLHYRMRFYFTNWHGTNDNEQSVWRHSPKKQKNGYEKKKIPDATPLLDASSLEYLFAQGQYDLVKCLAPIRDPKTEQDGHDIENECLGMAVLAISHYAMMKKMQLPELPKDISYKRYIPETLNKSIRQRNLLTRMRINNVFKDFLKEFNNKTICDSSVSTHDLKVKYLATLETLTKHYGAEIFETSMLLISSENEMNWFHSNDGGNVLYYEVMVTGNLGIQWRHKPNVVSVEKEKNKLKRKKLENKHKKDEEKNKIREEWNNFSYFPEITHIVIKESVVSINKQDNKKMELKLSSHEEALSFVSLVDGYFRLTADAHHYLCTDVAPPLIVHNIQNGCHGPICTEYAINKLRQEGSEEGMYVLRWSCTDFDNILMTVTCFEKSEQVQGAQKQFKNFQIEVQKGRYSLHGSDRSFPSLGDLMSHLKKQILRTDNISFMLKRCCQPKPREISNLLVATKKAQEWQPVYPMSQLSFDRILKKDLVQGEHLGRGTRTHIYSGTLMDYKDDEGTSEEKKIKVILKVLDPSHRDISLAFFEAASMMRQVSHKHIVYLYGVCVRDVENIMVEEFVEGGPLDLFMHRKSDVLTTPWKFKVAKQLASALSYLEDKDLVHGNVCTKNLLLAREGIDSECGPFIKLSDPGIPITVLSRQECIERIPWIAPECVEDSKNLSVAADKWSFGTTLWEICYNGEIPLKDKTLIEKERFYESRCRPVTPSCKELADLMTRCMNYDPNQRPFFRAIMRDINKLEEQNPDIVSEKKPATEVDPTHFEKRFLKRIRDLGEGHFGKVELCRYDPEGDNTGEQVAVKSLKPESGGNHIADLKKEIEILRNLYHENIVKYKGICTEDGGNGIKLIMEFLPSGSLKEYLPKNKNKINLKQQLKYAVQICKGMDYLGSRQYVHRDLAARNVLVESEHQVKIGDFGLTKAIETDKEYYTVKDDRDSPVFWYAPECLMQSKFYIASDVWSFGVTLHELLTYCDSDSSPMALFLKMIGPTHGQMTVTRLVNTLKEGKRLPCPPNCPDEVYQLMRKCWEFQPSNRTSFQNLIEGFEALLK
Compound,"IC50 (JAK1; IL-6 stimulated, MSD) [nM]",IC50 (JH2 domain of human Tyk2; [1]) [nM],IC50 (Tyk2; MSD) [nM],"IC50 (JAK1; IL-6 stimulation, MSD) [nM]",IC50 (JH2 domain of human Tyk2; [2]) [nM],IC50 (JAK1; IL-6 stimulated) [nM],IC50 (JH2 domain of human Tyk2; [3]) [nM],IC50 (Tyk2) [nM]
"CC(=O)Nc1cc(Nc2cc(C)nc(C(C)(F)F)n2)c(-c2cccc([C@H]3CN(C)CCO3)n2)cn1 (single isomer, unassigned) [Example 642, (R)-N-(4′-((2-(1,1-difluoroethyl)-6-methylpyrimidin-4-yl)amino)-6-(4-methylmorpholin-2-yl)-[2,3′-bipyridin]-6′-yl)acetamide or (S)-N-(4′-((2-(1,1-difluoroethyl)-6-methylpyrimidin-4-yl)amino)-6-(4-methylmorpholin-2-yl)-[2,3′-bipyridin]-6′-yl)acetamide]",≥ 1000,≤ 10,≤ 10,,,,,
"CC(=O)Nc1cc(Nc2cc(C)nc(C(C)(F)F)n2)c(C(F)(F)C2CC2)cn1 [Example 153, N-(5-(cyclopropyldifluoromethyl)-4-((2-(1,1-difluoroethyl)-6-methylpyrimidin-4-yl)amino)pyridin-2-yl)acetamide]",,,≤ 10,≥ 1000,≤ 10,,,
"COc1ccc(-c2cnc(NC(C)=O)cc2Nc2ccnc(C(C)(F)F)n2)nn1 [Example 214, N-(4-((2-(1,1-difluoroethyl)pyrimidin-4-yl)amino)-5-(6-methoxypyridazin-3-yl)pyridin-2-yl)acetamide trifluoroacetate]",,,≤ 10,≥ 1000,≤ 10,,,
"CCc1cc(Nc2cc(NC(C)=O)ncc2-c2ccc(CN(C)C)cn2)nc(C(C)(F)F)n1 [Example 266, N-(4′-((2-(1,1-difluoroethyl)-6-ethylpyrimidin-4-yl)amino)-5-((dimethylamino)methyl)-[2,3′-bipyridin]-6′-yl)acetamide]",,,≤ 10,100 to 1000,≤ 10,,,
"COCc1ccc(-c2cnc(NC(C)=O)cc2Nc2cc(C)nc(C34CC(CO3)C4)n2)nc1 [Example 280, N-(4′-((2-(2-oxabicyclo[2.1.1]hexan-1-yl)-6-methylpyrimidin-4-yl)amino)-5-(methoxymethyl)-[2,3′-bipyridin]-6′-yl)acetamide]",,,≤ 10,≥ 1000,≤ 10,,,
"COCn1ncc(-c2cnc(NC(C)=O)cc2Nc2cc(C)nc(C(C)(F)F)n2)n1 [Example 608, N-(4-((2-(1,1-difluoroethyl)-6-methylpyrimidin-4-yl)amino)-5-(2-(methoxymethyl)-2H-1,2,3-triazol-4-yl)pyridin-2-yl)acetamide]",≥ 1000,≤ 10,≤ 10,,,,,
"CC(=O)Nc1cc(Nc2cc(C)nc(C(C)(F)F)n2)c(-c2ccc(N3CCN(C)CC3)cn2)cn1 [Example 651, N-(4′-((2-(1,1-difluoroethyl)-6-methylpyrimidin-4-yl)amino)-5-(4-methylpiperazin-1-yl)-[2,3′-bipyridin]-6′-yl)acetamide]",≥ 1000,,≤ 10,,,,,
"CC(=O)Nc1cc(Nc2cc(C)nc(C(C)(F)F)n2)c(-c2nncs2)cn1 [Example 744, N-(4-((2-(1,1-difluoroethyl)-6-methylpyrimidin-4-yl)amino)-5-(1,3,4-thiadiazol-2-yl)pyridin-2-yl)acetamide]",≥ 1000,≤ 10,≤ 10,,,,,
"CC(=O)Nc1cc(Nc2cc(C)nc(C34COC(C3)C4)n2)c(-c2cc(C)ncn2)cn1 [Example 746, N-(4-((2-(2-oxabicyclo[2.1.1]hexan-4-yl)-6-methylpyrimidin-4-yl)amino)-5-(6-methylpyrimidin-4-yl)pyridin-2-yl)acetamide]",,,,,,≥ 1000,≤ 10,100 to 1000
"CC(=O)Nc1cc(Nc2cc(C)nc(C34COC(C3)C4)n2)c(-c2ccncn2)cn1 [Example 748, N-(4-((2-(2-oxabicyclo[2.1.1]hexan-4-yl)-6-methylpyrimidin-4-yl)amino)-5-(pyrimidin-4-yl)pyridin-2-yl)acetamide]",,,,,,≥ 1000,≤ 10,≤ 10
"CC(=O)Nc1cc(Nc2cc(C)nc(C34COC(C3)C4)n2)c(-c2ccc(C#N)cn2)cn1 [Example 751, N-(4′-((2-(2-oxabicyclo[2.1.1]hexan-4-yl)-6-methylpyrimidin-4-yl)amino)-5-cyanO[2,3′-bipyridin]-6′-yl)acetamide]",,,,,,≥ 1000,≤ 10,10 to 100
"COCCc1nnc(-c2cnc(NC(C)=O)cc2Nc2cc(C)nc(C(C)(F)F)n2)s1 [Example 754, N-(4-((2-(1,1-difluoroethyl)-6-methylpyrimidin-4-yl)amino)-5-(5-(2-methoxyethyl)-1,3,4-thiadiazol-2-yl)pyridin-2-yl)acetamide]",,,,,,≥ 1000,≤ 10,≤ 10
"COCCc1cnc(-c2cnc(NC(C)=O)cc2Nc2cc(C)nc(C(C)(F)F)n2)s1 [Example 756, N-(4-((2-(1,1-difluoroethyl)-6-methylpyrimidin-4-yl)amino)-5-(5-(2-methoxyethyl)thiazol-2-yl)pyridin-2-yl)acetamide]",,,,,,≥ 1000,≤ 10,100 to 1000
"CC(=O)Nc1cc(Nc2cc(C)nc(C(C)(F)F)n2)c(-c2cn3c(n2)COCC3)cn1 [Example 768, N-(4-((2-(1,1-difluoroethyl)-6-methylpyrimidin-4-yl)amino)-5-(5,6-dihydrO8H-imidazo[2,1-c][1,4]oxazin-2-yl)pyridin-2-yl)acetamide]",,,,,,≥ 1000,≤ 10,≤ 10
"CC(=O)Nc1cc(Nc2ccnc(C(C)(F)F)n2)c(-c2ccnc(C(F)F)n2)cn1 [Example 775, N-(4-((2-(1,1-difluoroethyl)pyrimidin-4-yl)amino)-5-(2-(difluoromethyl)pyrimidin-4-yl)pyridin-2-yl)acetamide]",,,,,,≥ 1000,≤ 10,≤ 10
"COCCOc1nccc(-c2cnc(NC(C)=O)cc2Nc2cc(C)nc(C(C)(F)F)n2)n1 [Example 776, N-(4-((2-(1,1-difluoroethyl)-6-methylpyrimidin-4-yl)amino)-5-(2-(2-methoxyethoxy)pyrimidin-4-yl)pyridin-2-yl)acetamide]",,,,,,≥ 1000,≤ 10,≤ 10
"CC(=O)Nc1cc(Nc2ccnc(C(C)(F)F)n2)c(-c2cn3c(n2)CCCC3)cn1 [Example 780, N-(4-((2-(1,1-difluoroethyl)pyrimidin-4-yl)amino)-5-(5,6,7,8-tetrahydroimidazo[1,2-a]pyridin-2-yl)pyridin-2-yl)acetamide]",,,,,,≥ 1000,≤ 10,≤ 10
"CC(=O)Nc1cc(Nc2ccnc(C(C)(F)F)n2)c(-c2nc3c(s2)CN(C)CC3)cn1 [Example 798, N-(4-((2-(1,1-difluoroethyl)pyrimidin-4-yl)amino)-5-(5-methyl-4,5,6,7-tetrahydrothiazolo[5,4-c]pyridin-2-yl)pyridin-2-yl)acetamide]",,,,,,≥ 1000,≤ 10,≤ 10
"CC(=O)Nc1cc(Nc2cc(C)nc(C(C)(C)F)n2)c(-c2ccncn2)cn1 [Example 800, N-(4-((2-(2-fluoropropan-2-yl)-6-methylpyrimidin-4-yl)amino)-5-(pyrimidin-4-yl)pyridin-2-yl)acetamide]",,,,,,≥ 1000,≤ 10,≤ 10
"CCc1cc(Nc2cc(NC(C)=O)ncc2-c2ccc(OC(F)F)cn2)nc(C(C)(F)F)n1 [Example 849, N-(4′-((2-(1,1-difluoroethyl)-6-ethylpyrimidin-4-yl)amino)-5-(difluoromethoxy)-[2,3′-bipyridin]-6′-yl)acetamide]",,,,,,≥ 1000,≤ 10,≤ 10
"CNc1ccc(-c2cnc(NC(C)=O)cc2Nc2ccnc(C(C)(F)F)n2)nc1 [Example 857, N-(4′-((2-(1,1-difluoroethyl)pyrimidin-4-yl)amino)-5-(methylamino)-[2,3′-bipyridin]-6′-yl)acetamide]",,,,,,≥ 1000,≤ 10,≤ 10
"CCc1cc(Nc2cc(NC(C)=O)ncc2-c2ccc(NC)cn2)nc(C(C)(F)F)n1 [Example 859, N-(4′-((2-(1,1-difluoroethyl)-6-ethylpyrimidin-4-yl)amino)-5-(methylamino)-[2,3′-bipyridin]-6′-yl)acetamide]",,,,,,≥ 1000,≤ 10,≤ 10
"CCc1cc(Nc2cc(NC(C)=O)ncc2-c2cnc(N3CCOCC3)cn2)nc(C(C)(F)F)n1 [Example 861, N-(4-((2-(1,1-difluoroethyl)-6-ethylpyrimidin-4-yl)amino)-5-(5-morpholinopyrazin-2-yl)pyridin-2-yl)acetamide]",,,,,,≥ 1000,≤ 10,10 to 100
"CCc1cc(Nc2cc(NC(C)=O)ncc2-c2cc(C(F)F)ncn2)nc(C(C)(F)F)n1 [Example 891, N-(4-((2-(1,1-difluoroethyl)-6-ethylpyrimidin-4-yl)amino)-5-(6-(difluoromethyl)pyrimidin-4-yl)pyridin-2-yl)acetamide]",,,,,,≥ 1000,≤ 10,≤ 10
"CCc1cc(Nc2cc(NC(C)=O)ncc2-c2cnc(CN3C[C@H]4C[C@@H](C3)O4)cn2)nc(C(C)(F)F)n1 [Example 900, N-(5-(5-(((1R,5S)-6-oxa-3-azabicyclo[3.1.1]heptan-3-yl)methyl)pyrazin-2-yl)-4-((2-(1,1-difluoroethyl)-6-ethylpyrimidin-4-yl)amino)pyridin-2-yl)acetamide]",,,,,,,≤ 10,≤ 10
"CCc1cc(Nc2cc(NC(=O)NC)ncc2-c2cnccn2)nc(C(C)(F)F)n1 [Example 919, 1-(4-((2-(1,1-difluoroethyl)-6-ethylpyrimidin-4-yl)amino)-5-(pyrazin-2-yl)pyridin-2-yl)-3-methylurea]",,,,,,,≤ 10,10 to 100
